Reference: patent publication US11370763B2, “Compounds and compositions for treating conditions associated with NLRP activity” (Novartis AG, priority 2017, dated 2022)

system: IL-1β production in PMA-differentiated THP-1 cells; assay: IL-1β production in PMA-differentiated THP-1 cells stimulated with gramicidin (hTHP-1 assay containing 2% fetal bovine serum; Procedures 1-3); type: cell-based, human; conditions: Homo sapiens, THP-1, hTHP-1 assay containing 2% fetal bovine serum; class symbols; read-out: hTHP-1 IC50 (Average IC50 of compounds in hTHP-1 assay)
Protocol: The following protocol is suitable for testing the activity of the compounds disclosed herein.
Procedure 1: IL-1β Production in PMA-Differentiated THP-1 Cells Stimulated with Gramicidin
THP-1 cells were purchased from the American Type Culture Collection and sub-cultured according to instructions from the supplier. Cells were cultured in complete RPMI 1640 (containing 10% heat inactivated FBS, penicillin (100 units/ml) and streptomycin (100 μg/ml)), and maintained in log phase prior to experimental setup. Prior to the experiment, compounds were dissolved in dimethyl sulfoxide (DMSO) to generate a 30 mM stock. The compound stock was first pre-diluted in DMSO to 3, 0.34, 0.042 and 0.0083 mM intermediate concentrations and subsequently spotted using Echo550 liquid handler into an empty 384-well assay plate to achieve desired final concentration (e.g. 100, 33, 11, 3.7, 1.2, 0.41, 0.14, 0.046, 0.015, 0.0051, 0.0017 μM). DMSO was backfilled in the plate to achieve a final DMSO assay concentration of 0.37%. The plate was then sealed and stored at room temperature until required.
THP-1 cells were treated with PMA (Phorbol 12-myristate 13-acetate) (20 ng/ml) for 16-18 hours. On the day of the experiment the media was removed and adherent cells were detached with trypsin for 5 minutes. Cells were then harvested, washed with complete RPMI 1640, spun down, and resuspended in RPMI 1640 (containing 2% heat inactivated FBS, penicillin (100 units/ml) and streptomycin (100 μg/ml). The cells were plated in the 384-well assay plate containing the spotted compounds at a density of 50,000 cells/well (final assay volume 50 μl). Cells were incubated with compounds for 1 hour and then stimulated with gramicidin (5 μM) (Enzo) for 2 hours. Plates were then centrifuged at 340 g for 5 min. Cell free supernatant (40 μL) was collected using a 96-channel PlateMaster (Gilson) and the production of IL-1β was evaluated by HTRF (cisbio). The plates were incubated for 18 h at 4° C. and read using the preset HTRF program (donor emission at 620 nm, acceptor emission at 668 nm) of the SpectraMax i3x spectrophotometer (Molecular Devices, software SoftMax 6). A vehicle only control and a dose titration of CRID3 (100-0.0017 μM) were run concurrently with each experiment.
Procedure 2: IL-1β Production in PMA-Differentiated THP-1 Cells Stimulated with Gramicidin
THP-1 cells were purchased from the American Type Culture Collection and sub-cultured according to instructions from the supplier. Prior to experiments, cells were cultured in complete RPMI 1640 (containing 10% heat inactivated FBS, penicillin (100 units/ml) and streptomycin (100 μg/ml)), and maintained in log phase prior to experimental setup. Prior to the experiment THP-1 were treated with PMA (Phorbol 12-myristate 13-acetate) (20 ng/ml) for 16-18 hours. Compounds were dissolved in dimethyl sulfoxide (DMSO) to generate a 30 mM stock. On the day of the experiment the media was removed and adherent cells were detached with trypsin for 5 minutes. Cells were then harvested, washed with complete RPMI 1640, spun down, resuspended in RPMI 1640 (containing 2% heat inactivated FBS, penicillin (100 units/ml) and streptomycin (100 μg/ml). The cells were plated in a 384-well plate at a density of 50,000 cells/well (final assay volume 50 μl). Compounds were first dissolved in assay medium to obtain a 5× top concentration of 500 μM. 10 step dilutions (1:3) were then undertaken in assay medium containing 1.67% DMSO. 5× compound solutions were added to the culture medium to achieve desired final concentration (e.g. 100, 33, 11, 3.7, 1.2, 0.41, 0.14, 0.046, 0.015, 0.0051, 0.0017 μM). Final DMSO concentration was at 0.37%. Cells were incubated with compounds for 1 hour and then stimulated with gramicidin (5 μM) (Enzo) for 2 hours. Plates were then centrifuged at 340 g for 5 min. Cell free supernatant (40 μL) was collected using a 96-channel PlateMaster (Gilson) and the production of IL-1β was evaluated by HTRF (cisbio). […]

| Compound | IC50 [nM] |
| --- | --- |
| CC(C)c1cc(C(F)F)cc(C(C)C)c1CC(=O)N=S(N)(=O)c1ccc(C(C)(C)O)cc1F (stereo not drawn) [Example 33, 2-(4-(difluoromethyl)-2,6-diisopropylphenyl)-N-(2-fluoro-4-(2-hydroxypropan-2-yl)phenylsulfonimidoyl)acetamide] | 200 to 1000 |
| CC(C)c1cc(-c2ccc3c(c2)COCC3)cc(C(C)C)c1CC(=O)N=S(N)(=O)c1cnc(C(C)(C)O)s1 (stereo not drawn) [Example 97, N-(amino(2-(2-hydroxypropan-2-yl)thiazol-5-yl)(oxo)-λ^6-sulfaneylidene)-2-(4-(isochroman-7-yl)-2,6-diisopropylphenyl)acetamide] | 200 to 1000 |
| Cc1cc(CN(C)C)ccc1S(N)(=O)=NC(=O)Cc1c(C(C)C)cc(OC(F)F)cc1C1CC1 (stereo not drawn) [Example 26, 2-(2-cyclopropyl-4-(difluoromethoxy)-6-isopropylphenyl)-N-(4-((dimethylamino)methyl)-2-methylphenylsulfonimidoyl) acetamide] | 1000 to 5000 |
| CC(C)c1cc(C#N)cc(C(C)C)c1CC(=O)N=S(N)(=O)c1ncc(C(C)(C)O)s1 (stereo not drawn) [Example 38, 2-(4-cyano-2,6-diisopropylphenyl)-N-(5-(2-hydroxypropan-2-yl)thiazole-2-sulfonimidoyl)acetamide] | 200 to 1000 |
| CC(C)(O)c1nc(CO)c(S(N)(=O)=NC(=O)Cc2c3c(cc4c2CCC4)CCC3)s1 (single isomer, unassigned) [Example 66, (S)- or (R)-2-(1,2,3,5,6,7-hexahydros-indacen-4-yl)-N-(4-(hydroxymethyl)-2-(2-hydroxypropan-2-yl)thiazol-5-ylsulfonimidoyl)acetamide] | 200 to 1000 |
| CC(C)c1cc2c(c(C(C)C)c1CC(=O)N=S(N)(=O)c1cnc(C(C)(C)O)s1)CCC2 (single isomer, unassigned) [Example 213, (S) or (R)-N-(amino(2-(2-hydroxypropan-2-yl)thiazol-5-yl)(oxo)-λ^6-sulfaneylidene)-2-(4,6-diisopropyl-2,3-dihydro-1H-inden-5-yl)acetamide] | 1000 to 5000 |
| CC(C)c1cc(F)cc(C2CC2)c1CC(=O)N=S(N)(=O)c1ccc(CN(C)C)cc1F (stereo not drawn) [Example 31, 2-(2-cyclopropyl-4-fluoro-6-isopropylphenyl)-N-(4-((dimethylamino)methyl)-2-fluorophenylsulfonimidoyl) acetamide] | 1000 to 5000 |
| CC(C)c1c(F)c(C#N)cc(C2CC2)c1CC(=O)N=S(N)(=O)c1sc(C(C)(C)O)cc1F (stereo not drawn) [Example 19, 2-(4-cyano-6-cyclopropyl-3-fluoro-2-isopropylphenyl)-N-(3-fluoro-5-(2-hydroxypropan-2-yl)thiophen-2-ylsulfonimidoyl)acetamide] | 8 to 40 |
| Cc1nc(C(C)(C)O)sc1S(N)(=O)=NC(=O)Cc1c(C(C)C)cc(C#N)cc1C(C)C (stereo not drawn) [Example 40, 2-(4-cyano-2,6-diisopropylphenyl)-N-(2-(2-hydroxypropan-2-yl)-4-methylthiazole-5-sulfonimidoyl)acetamide] | 200 to 1000 |
| CC(C)c1cc2c(c(C(C)C)c1CC(=O)N=S(N)(=O)c1ccc(CN(C)C)cc1)COC2 (single isomer, unassigned) [Example 191, (R) or (S)-N-(amino(4-((dimethylamino)methyl)phenyl) (oxo)-λ^6-sulfaneylidene)-2-(4,6-diisopropyl-1,3-dihydroisobenzofuran-5-yl)acetamide] | 1000 to 5000 |
| CC(C)c1cc(COC2CCCC2)cc(C(C)C)c1CC(=O)N=S(=O)(NC(=O)OC(C)(C)C)c1cnc(C(C)(C)O)s1 (stereo not drawn) [Example 140, tert-butyl (N-(2-(4-((cyclopentyloxy)methyl)-2,6-diisopropylphenyl)acetyl)-2-(2-hydroxypropan-2-yl)thiazole-5-sulfonimidoyl)carbamate] | 200 to 1000 |
| CCc1cc(C#N)cc(C(C)C)c1CC(=O)N=S(N)(=O)c1ccc(CN(C)C)cc1 (stereo not drawn) [Example 30, 2-(4-cyano-2-ethyl-6-isopropylphenyl)-N-(4-((dimethylamino)methyl)phenyl-sulfonimidoyl)acetamide] | 5000 to 30000 |
| CC(C)c1cc(C#N)cc(C2CC2)c1CC(=O)N=S(N)(=O)c1ccc(CN(C)C)cc1 (stereo not drawn) [Example 29, 2-(4-cyano-2-cyclopropyl-6-isopropylphenyl)-N-(4-((dimethylamino)methyl)phenyl-sulfonimidoyl)acetamide] | 5000 to 30000 |
| CC(C)c1cc(C#N)c(F)c(C(C)C)c1CC(=O)N=S(N)(=O)c1sc(C(C)(C)O)cc1F (stereo not drawn) [Example 14, 2-(4-cyano-3-fluoro-2,6-diisopropylphenyl)-N-(3-fluoro-5-(2-hydroxypropan-2-yl)thiophen-2-ylsulfonimidoyl)acetamide] | 8 to 40 |
| CCc1cc(OC(F)F)cc(C(C)C)c1CC(=O)N=S(N)(=O)c1sc(C(C)(C)O)cc1F (stereo not drawn) [Example 36, 2-(4-(difluoromethoxy)-2-ethyl-6-isopropylphenyl)-N-(3-fluoro-5-(2-hydroxypropan-2-yl)thiophene-2-sulfonimidoyl)acetamide] | 200 to 1000 |
| CC(C)c1ncc(F)c(C(C)C)c1CC(=O)N=S(N)(=O)c1nc(C(C)(C)O)cs1 (stereo not drawn) [Example 147, N-(amino(4-(2-hydroxypropan-2-yl)thiazol-2-yl)(oxo)-λ^6-sulfaneylidene)-2-(5-fluoro-2,4-diisopropylpyridin-3-yl)acetamide] | 1000 to 5000 |

same assay, conditions: Homo sapiens, THP-1, hTHP-1 assay containing 2% fetal bovine serum; given as numeric bound; read-out: hTHP-1 IC50 (Average IC50 of compounds in hTHP-1 assay)

| Compound | IC50 [nM] |
| --- | --- |
| CC(C)c1cc2c(c(C(C)C)c1CC(=O)N=S(N)(=O)c1ccn(C(C)C)n1)COC2 (single isomer, unassigned) [Example 219, (S) or (R)-N-(amino(1-isopropyl-1H-pyrazol-3-yl)(oxo)-λ^6-sulfaneylidene)-2-(4,6-diisopropyl-1,3-dihydroisobenzofuran-5-yl)acetamide] | > 30000 |
| CC(C)c1ccc(F)c(C(C)C)c1CC(=O)N=S(N)(=O)c1ccc(CN(C)C)cn1 (single isomer, unassigned) [Example 201, (S) or (R)-N-(amino(5-((dimethylamino)methyl)pyridin-2-yl)(oxo)-λ^6-sulfaneylidene)-2-(3-fluoro-2,6-diisopropylphenyl)acetamide] | > 30000 |

same assay, conditions: hTHP-1 assay containing 2% fetal bovine serum; class symbols; read-out: hTHP-1 IC50 (Average IC50 of compounds in hTHP-1 assay)

| Compound | IC50 [nM] |
| --- | --- |
| CC(C)c1ccc(C#N)c(C(C)C)c1CC(=O)N=S(N)(=O)c1nc(C(C)(C)O)cs1 (single isomer, unassigned) [Example 179, (R) or (S)-N-(amino(4-(2-hydroxypropan-2-yl)thiazol-2-yl)(oxo)-λ^6-sulfaneylidene)-2-(3-cyano-2,6-diisopropylphenyl)acetamide] | 200 to 1000 |
| CC(C)c1cc(Cl)c(F)c(C2CC2)c1CC(=O)N=S(N)(=O)c1sc(C(C)(C)O)cc1F (single isomer, unassigned) [Example 56, (S)- or (R)-2-(4-chloro-2-cyclopropyl-3-fluoro-6-isopropylphenyl)-N-(3-fluoro-5-(2-hydroxypropan-2-yl)thiophen-2-ylsulfonimidoyl)acetamide] | 200 to 1000 |
| CC(C)c1ccc(F)c(C(C)C)c1CC(=O)N=S(N)(=O)c1cc(C(C)(C)O)cs1 (single isomer, unassigned) [Example 159, (R) or (S)-N-(amino(4-(2-hydroxypropan-2-yl)thiophen-2-yl)(oxo)-λ^6-sulfaneylidene)-2-(3-fluoro-2,6-diisopropylphenyl)acetamide] | 40 to 200 |
